According to ChEMBL document CHEMBL1136694, “Aryl tetrahydropyridine inhibitors of farnesyltransferase: bioavailable analogues with improved cellular potency” (Bioorg Med Chem Lett, 2003):

How the values were obtained:
[1] = target: Geranylgeranyl transferase type I (Homo sapiens, UniProt P49354+P53609); assay: In vitro inhibition of geranylgeranyltransferase-1; format: protein-complex assay
[2] = target: Protein farnesyltransferase (Mus musculus, UniProt Q61239+Q8K2I1); assay: Inhibition of Ras farnesylation in Human Ha-Ras oncogene-transformed BALB/c 3T3 cells (EJ3 cells); format: functional, cell-based
[3] = target: Protein farnesyltransferase (Homo sapiens, UniProt P49354+P49356); assay: In vitro inhibition of farnesyltransferase; format: protein-complex assay
[4] = Compound was tested for orally bioavailable in dogs with a half life of 1.2h; format: ADME, organism-based, Canis lupus familiaris; conditions: dog, in vivo, po
[5] = Compound was tested for orally bioavailable in dogs with a half life of 0.7 hr; format: ADME, organism-based, Canis lupus familiaris; conditions: dog, in vivo, po

Row | Compound | IC50 [1] [nM] | EC50 [2] [nM] | IC50 [3] [nM] | bioavailability [4] [%] | bioavailability [5] [%]
1 | CN(Cc1ccc(C#N)cc1)[C@H](Cc1cncn1C)C(=O)N1CCC(C#N)=C(c2cccc3ccccc23)C1 | 1600 | > 100 | 0.92 | – | –
2 | Cn1cncc1CN(Cc1ccc(Cl)c(Cl)c1)C(=O)N1CCC(C#N)=C(c2cccc3ccccc23)C1 | 1500 | – | 20 | – | –
3 | N#CC1=C(c2cccc3ccccc23)CN(C(=O)Cc2cncn2Cc2ccc(Cl)cc2)CC1 | > 10000 | > 100 | 35 | – | –
4 | Cn1cncc1C(c1ccc(C#N)cc1)N1CCC(C#N)=C(c2cccc3ccccc23)C1 (stereo not drawn) | 161000 | 31 | 0.5 | – | –
5 | COC1=C(C#N)CCN(C(=O)Cc2cncn2Cc2ccc(C#N)c(-c3cccc4ccccc34)c2)C1 | 2700 | > 100 | 1.4 | – | –
6 | Cn1cncc1CN(Cc1ccc(C#N)cc1)C(=O)N1CCC(C#N)=C(c2cccc3ccccc23)C1 | 4000 | 97 | 3.5 | – | –
7 | Cn1cncc1CN(Cc1cccc(C#N)c1)C(=O)N1CCC(C#N)=C(c2cccc3ccccc23)C1 | 10000 | – | 59 | – | –
8 | Cn1cncc1CN(Cc1ccc(C#N)c(Br)c1)C(=O)N1CCC(C#N)=C(c2cccc3ccccc23)C1 | 1400 | > 1 | 3.1 | – | –
9 | N#CC1=C(c2cccc3ccccc23)CN(C(=O)Cc2cncn2Cc2ccc(C#N)cc2)CC1 | 4500 | 3.9 | – | – | 10

Now those with a lower IC50 [1], led by results:

Row | IC50 [1] [nM] | EC50 [2] [nM] | IC50 [3] [nM] | bioavailability [4] [%] | bioavailability [5] [%] | Compound
10 | 1300 | > 100 | 15 | – | – | N#CC1=C(c2cccc3ccccc23)CN(C(=O)Cc2cncn2Cc2ccc(C#N)c(Cl)c2)CC1
11 | 1300 | 28 | 1.4 | – | – | N#CC1=C(c2cccc3ccccc23)CN(C(=O)CCc2cncn2Cc2ccc(C#N)cc2)CC1
12 | 600 | 0.5 | 0.5 | 27 | – | Cn1cncc1C(NN1CCC(C#N)=C(c2cccc3ccccc23)C1)c1ccc(C#N)cc1 (stereo not drawn)
13 | 540 | 4 | 0.48 | – | – | Cn1cncc1C(O)(CN1CCC(C#N)=C(c2cccc3ccccc23)C1)c1ccc(C#N)cc1 (stereo not drawn)
